Test results from patent US11352350B2, “IRAK degraders and uses thereof” (Kymera Therapeutics, Inc., priority 2018, dated 2022).
Where two headings read alike, the source gives them in different places.

How the values were obtained:
OCI-LY10 = assay: CTG Cell Viability Assay - OCI-LY10; format: cell-based, human; conditions: Homo sapiens, OCI-Ly10, 96 h, OCI-LY10, 4 days; read-out: CTG Cell Viability Assay - OCI-LY10: Average external-IC50
In short: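 Viability read by CellTiter-Glo luminescence after 4 days at 37° C under 5% CO2 with compound (top 10 μM final, 1:3 steps, 9 doses, DMSO 0.2%). Three-parameter logistic fit gave IC50.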

IRAK4 = IRAK4 (Homo sapiens (Human), UniProt Q9NWZ3); assay: IRAK4 MSD degradation in OCI-LY10; format: cell-based
Chain of IRAK4 (Q9NWZ3 whole entry): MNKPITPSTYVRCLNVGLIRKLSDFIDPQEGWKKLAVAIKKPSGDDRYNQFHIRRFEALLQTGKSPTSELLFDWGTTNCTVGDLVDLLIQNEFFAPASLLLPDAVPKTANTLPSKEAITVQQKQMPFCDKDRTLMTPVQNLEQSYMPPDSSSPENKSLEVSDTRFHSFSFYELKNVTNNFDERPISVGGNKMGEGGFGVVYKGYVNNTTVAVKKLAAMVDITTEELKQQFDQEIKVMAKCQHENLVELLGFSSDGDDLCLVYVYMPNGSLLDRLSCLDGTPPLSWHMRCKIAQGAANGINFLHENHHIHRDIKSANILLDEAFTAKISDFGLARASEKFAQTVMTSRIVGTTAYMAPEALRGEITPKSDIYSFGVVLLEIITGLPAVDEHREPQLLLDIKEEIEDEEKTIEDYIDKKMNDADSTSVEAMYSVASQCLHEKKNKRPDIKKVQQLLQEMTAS
In short: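 Remaining IRAK4 quantified by electrochemiluminescent MSD sandwich assay with two anti-IRAK4 antibodies. Compounds were dosed as 8 concentrations in 1:3 steps from a 1 to 10 μM final top on OCI-LY10 cells, incubated 4 to 24 h at 37° C. under 5% CO2. DC50 fitted with a three-parameter logistic curve.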

[1] = OCI-LY10, 4 hrs, MSD, read-out: IRAK4 MSD degradation in OCI-LY10 at 4 hrs: Average external-Abs DC50
[2] = OCI-LY10, 24 hrs, MSD, read-out: IRAK4 MSD degradation in OCI-LY10 at 24 hrs: Average external-Abs DC50
[3] = OCI-LY10, 4 hrs, read-out: IRAK4 MSD degradation in OCI-LY10 at 4 hrs: DC50
[4] = OCI-LY10, 24 hrs, read-out: IRAK4 MSD degradation in OCI-LY10 at 24 hrs: DC50

| SMILES | IC50 (OCI-LY10) [nM] | DC50 (IRAK4; [1]) [nM] | DC50 (IRAK4; [2]) [nM] | DC50 (IRAK4; [3]) [nM] | DC50 (IRAK4; [4]) [nM] |
| --- | --- | --- | --- | --- | --- |
| CC[C@@H]1[C@H](F)C(=O)N[C@@H]1COc1ccc(-c2ncn(CN(C)CCCOCCCc3cccc4c3n(C)c(=O)n4C3CCC(=O)NC3=O)n2)c2cc(C(N)=O)c(OC)cc12 (stereo partly shown) [I-188] | > 1000 | 100 to 1000 | 100 to 1000 |  |  |
| CC[C@@H]1[C@H](F)C(=O)N[C@@H]1COc1ncc(C#C[C@H]2CC[C@H](CN(C)C3CCN(Cc4ccc5c(c4)n(C)c(=O)n5C4CCC(=O)NC4=O)CC3)CC2)c2cc(C(N)=O)c(OC)cc12 (stereo partly shown) [I-190] | > 1000 | 100 to 1000 | 10 to 100 |  |  |
| CN(C[C@H]1CC[C@H](n2cc(NC(=O)c3cnn4ccc(NCC5CC5)nc34)c(C(C)(C)O)n2)CC1)C1CCN(Cc2cccc3c2n(C)c(=O)n3C2CCC(=O)NC2=O)CC1 (stereo partly shown) [I-268] | > 1000 | 100 to 1000 |  |  |  |
| CN(C[C@H]1CC[C@H](n2cc(NC(=O)c3cnn4ccc(N5CCOCC5)nc34)c(C(F)F)n2)CC1)[C@H]1CC[C@@H](Nc2cccc3c2C(=O)N(C2CCC(=O)NC2=O)C3=O)CC1 (stereo partly shown) [I-350] | > 1000 | 100 to 1000 | 10 to 100 |  |  |
| O=C1CCC(N2C(=O)c3cccc(NCCCOC4CCN(C[C@H]5CC[C@H](n6ncc(NC(=O)c7cnn8ccc(N9C[C@H]%10CC9CO%10)nc78)c6C(=O)O)CC5)CC4)c3C2=O)C(=O)N1 (stereo partly shown) [I-348] | > 1000 | > 1000 | > 1000 |  |  |
| CN(CCCOCCCNc1cccc2c1C(=O)N(C1CCC(=O)NC1=O)C2=O)C[C@H]1CC[C@H](n2cc(NC(=O)c3coc(-c4ccnc(N[C@@H]5CCCC[C@@H]5O)c4)n3)c(C(F)F)n2)CC1 (stereo partly shown) [I-399] | < 50 | 10 to 100 | < 10 |  |  |
| CN(CCC1CCN(C(=O)c2ccc(CNCc3ccc(-c4ccc5c(cnn5CC5CC5)c4)cc3)cc2)CC1)C[C@H]1CC[C@H](n2cc(NC(=O)c3coc(-c4ccnc(NCC5CC5)c4)n3)c(C(F)F)n2)CC1 [I-134] | > 1000 | > 1000 | > 1000 |  |  |
| Cn1c(=O)n(C2CCC(=O)NC2=O)c2ccc(CN3CCC(CC(=O)N4CCC(n5cc(NC(=O)c6coc(-c7ccnc(NCC8CC8)c7)n6)c(C(F)F)n5)CC4)CC3)cc21 (stereo not shown) [I-148] | 100 to 500 | 100 to 1000 |  |  |  |
| CN[C@@H](C)C(=O)N[C@H](C(=O)N1CCC[C@H]1c1nc(C(=O)c2cccc(OCCOCCOCCOCCOCCNC[C@H]3CC[C@H](n4cc(NC(=O)c5coc(-c6ccnc(NCC7CC7)c6)n5)c(C(F)F)n4)CC3)c2)cs1)C1CCCCC1 [I-274] | 500 to 1000 | 100 to 1000 | 100 to 1000 |  |  |
| CN(Cc1ccc(-n2cc(NC(=O)c3cnn4ccc(N5CCOCC5)nc34)c(C(F)F)n2)cc1)[C@H]1CC[C@H](Nc2cccc3c2C(=O)N(C2CCC(=O)NC2=O)C3=O)CC1 (stereo partly shown) [I-476] | > 1000 |  |  | 10 to 100 | 10 to 100 |
| CN1C(=O)C(C2CCC(=O)NC2=O)c2cccc(CCCOC3CCN(C[C@H]4CC[C@H](n5cc(NC(=O)c6cnn7ccc(N8CCC(C)(O)CC8)nc67)c(C(F)F)n5)CC4)CC3)c21 (stereo partly shown) [I-286] | > 1000 | 10 to 100 |  |  |  |
| CN(CCCN1CCN(c2cccc3c2C(=O)N(C2CCC(=O)NC2=O)C3=O)CC1)C[C@H]1CC[C@H](n2cc(NC(=O)c3cnn4ccc(N5CCOCC5)nc34)c(C(F)F)n2)CC1 (stereo partly shown) [I-225] | > 1000 | 10 to 100 |  |  |  |
| O=C1CCC(N2C(=O)c3cccc(NCC4CCN(C[C@H]5CC[C@H](n6cc(NC(=O)c7cnn8ccc(N9CCOCC9)nc78)c(C(F)F)n6)CC5)CC4)c3C2=O)C(=O)N1 (stereo partly shown) [I-385] | < 50 | > 1000 | 10 to 100 |  |  |
| O=C1CCC(N2C(=O)c3cccc(NCCCOC4CCN(C[C@H]5CC[C@H](n6cc(NC(=O)c7cnn8ccc(N9C[C@H]%10C[C@@H]9CO%10)nc78)c(C(F)F)n6)CC5)CC4)c3C2=O)C(=O)N1 (stereo partly shown) [I-371] | 50 to 100 |  | 10 to 100 |  |  |
| CN(CCc1ccc(CCNc2cccc3c2C(=O)N(C2CCC(=O)NC2=O)C3=O)cc1)C[C@H]1CC[C@H](n2cc(NC(=O)c3cnn4ccc(N5C[C@H]6C[C@@H]5CO6)nc34)c(C(F)F)n2)CC1 (stereo partly shown) [I-336] | 50 to 100 | 100 to 1000 | 10 to 100 |  |  |
| CC[C@@H]1CC(=O)N[C@@H]1COc1ncc(C#C[C@H]2CC[C@@H](CN3CCC(OCCCc4cccc5c4n(C)c(=O)n5C4CCC(=O)NC4=O)CC3)CC2)c2cc(C(N)=O)c(OC)cc12 (stereo partly shown) [I-202] | > 1000 | 100 to 1000 | 10 to 100 |  |  |
| Cc1nc2cccc(NCCCOC3CCN(C[C@H]4CC[C@H](n5cc(NC(=O)c6cnn7ccc(N8CCOCC8)nc67)c(C(F)F)n5)CC4)CC3)c2c(=O)n1C1CCC(=O)NC1=O (stereo partly shown) [I-211] | 50 to 100 | > 1000 | > 1000 |  |  |

| SMILES | IC50 (OCI-LY10) [nM] | DC50 (IRAK4; [1]) [nM] | DC50 (IRAK4; [2]) [nM] | DC50 (IRAK4; [3]) [nM] | DC50 (IRAK4; [4]) [nM] |
| --- | --- | --- | --- | --- | --- |
| Cc1c[nH]c2ncnc(N[C@H]3CC[C@H](N4CCN(C(=O)COCCOCCOCCOCCCc5cccc6c5n(C)c(=O)n6C5CCC(=O)NC5=O)CC4)CC3)c12 (stereo partly shown) [I-25] | > 1000 | > 1000 | > 1000 |  |  |
| CN(C[C@H]1CC[C@H](n2cc(NC(=O)c3cnn4ccc(N5CCOCC5)nc34)c(C(F)F)n2)CC1)C1CCC(Nc2cccc3c2C(=O)N(C2CCC(=O)NC2=O)C3=O)CC1 (stereo partly shown) [I-221] | 50 to 100 | < 10 |  |  |  |
| O=C1CCC(N2C(=O)c3cccc(NCCCOC4CCN(C[C@H]5CC[C@H](n6cc(NC(=O)c7cnn8ccc(N9CC%10CC(C9)O%10)nc78)c(C(F)F)n6)CC5)CC4)c3C2=O)C(=O)N1 (stereo partly shown) [I-344] | < 50 | 100 to 1000 |  |  |  |
| CN(CCN1CCN(c2cccc3c2C(=O)N(C2CCC(=O)NC2=O)C3=O)CC1)C[C@H]1CC[C@H](n2cc(NC(=O)C3CNN4C=CC(N5CCOCC5)=NC34)c(C(F)F)n2)CC1 (stereo partly shown) [I-224] | > 1000 | 100 to 1000 |  |  |  |
| CN(CCCNc1cccc2c1C(=O)N(C1CCC(=O)NC1=O)C2=O)C1CCN(C[C@H]2CC[C@H](n3cc(NC(=O)c4cnn5ccc(N6CCOCC6)nc45)c(C(F)F)n3)CC2)CC1 (stereo partly shown) [I-231] | < 50 | 10 to 100 |  |  |  |
| CC[C@@H]1[C@H](F)C(=O)N[C@@H]1COc1ncc(C#CC2CCN(CCCC3CCN(c4cccc5c4C(=O)N(C4CCC(=O)NC4=O)C5=O)CC3)CC2)c2cc(C(N)=O)c(OC)cc12 (stereo partly shown) [I-234] | > 1000 | 100 to 1000 | 10 to 100 |  |  |
| CC[C@@H]1[C@H](F)C(=O)N[C@@H]1COc1ncc(C#C[C@H]2CC[C@@H](CN(C)CCCOCCCc3ccc4c(c3)n(C)c(=O)n4C3CCC(=O)NC3=O)CC2)c2cc(C(N)=O)c(OC)cc12 (stereo partly shown) [I-230] | > 1000 | 100 to 1000 | 100 to 1000 |  |  |
| O=C1CCC(N2Cc3c(OC4CC5(CCN(C[C@H]6CC[C@H](n7cc(NC(=O)c8cnn9ccc(N%10C[C@H]%11C[C@@H]%10CO%11)nc89)c(C(F)F)n7)CC6)CC5)C4)cccc3C2=O)C(=O)N1 (stereo partly shown) [I-328] | < 50 | 10 to 100 | < 10 |  |  |
| CC[C@@H]1[C@H](F)C(=O)N[C@@H]1COc1ncc(C#CC2CCN(CCCOCCCc3cccc4c3n(C)c(=O)n4C3CCC(=O)NC3=O)CC2)c2cc(C(N)=O)c(OC)cc12 (stereo partly shown) [I-204] | > 1000 | 100 to 1000 | 10 to 100 |  |  |
| O=C1CCC(N2C(=O)c3cccc(NCC4CC5(CCN(Cc6ccc(-n7cc(NC(=O)c8cnn9ccc(N%10C[C@H]%11C[C@@H]%10CO%11)nc89)c(C(F)F)n7)cc6)CC5)C4)c3C2=O)C(=O)N1 (stereo partly shown) [I-462] | < 50 |  |  | 100 to 1000 | > 1000 |
| Cn1c(=O)n(C2CCC(=O)NC2=O)c2cccc(CCCO[C@H]3CC[C@H](CN4CCC(n5cc(NC(=O)c6cnn7ccc(N8CCOCC8)nc67)c(C(F)F)n5)CC4)CC3)c21 (stereo partly shown) [I-200] | 50 to 100 | < 10 |  |  |  |
| CN(CCCOCCCNc1cccc2c1C(=O)N(C1CCC(=O)NC1=O)C2=O)C[C@H]1CC[C@H](n2cc(NC(=O)c3coc(-c4ccnc(N[C@H]5CCCC[C@H]5O)c4)n3)c(C(F)F)n2)CC1 (stereo partly shown) [I-398] | 50 to 100 | 10 to 100 | 10 to 100 |  |  |
| C=C(C)c1nn([C@H]2CC[C@H](CN(C)C3CCN(Cc4cccc5c4n(C)c(=O)n5C4CCC(=O)NC4=O)CC3)CC2)cc1NC(=O)c1cnn2ccc(NCC3CC3)nc12 (stereo partly shown) [I-173] | > 1000 | 100 to 1000 |  |  |  |
| CN(C[C@H]1CC[C@H](n2cc(NC(=O)c3coc(-c4ccnc(NCC5CC5)c4)n3)c(C(F)F)n2)CC1)C1CCN(Cc2ccnc3c2c2ccccc2n3C2CCC(=O)NC2=O)CC1 (stereo partly shown) [I-241] | 500 to 1000 | 10 to 100 |  |  |  |
| CC[C@H]1C(COc2ncc(C#CC3CCC(CN(C)CCCOCCCc4cccc5c4n(C)c(=O)n5C4CCC(=O)NC4=O)CC3)c3cc(C(N)=O)c(OC)cc23)NC(=O)[C@H]1F (stereo partly shown) [I-184] | > 1000 | 10 to 100 | 10 to 100 |  |  |
| CC[C@@H]1[C@H](F)C(=O)N[C@@H]1COc1ncc(C#C[C@H]2CC[C@H](CN(C)CCCOCCNc3cccc4c3C(=O)N(C3CCC(=O)NC3=O)C4=O)CC2)c2cc(C(N)=O)c(OC)cc12 (stereo partly shown) [I-387] | < 50 | 100 to 1000 |  |  |  |
| CN(C[C@H]1CC[C@H](n2cc(NC(=O)c3coc(-c4ccnc(NCC5CC5)c4)n3)c(C(F)F)n2)CC1)C1CCN(Cc2cccc3c2n(C)c(=O)n3[C@H]2CCC(=O)NC2=O)CC1 [I-308, 2-(2-((cyclopropylmethyl)amino)pyridin-4-yl)-N-(3-(difluoromethyl)-1-((1S,4r)-4-(((1-((1-((S)-2,6-dioxopiperidin-3-yl)-3-methyl-2-oxo-2,3-dihydro-1H-benzo [d]imidazol-4-yl)methyl)piperidin-4-yl)(methyl)amino)methyl)cyclohexyl)-1H-pyrazol-4-yl)oxazole-4-carboxamide] | < 50 | < 10 |  |  |  |
